Reference: paper PMC5991599, “Anti‐tumor efficacy of a novel CLK inhibitor via targeting RNA splicing and MYC‐dependent vulnerability” (EMBO Molecular Medicine, 2018)

Assays:
[1] = test system: SUM-159 xenografts; test: In vivo anti-tumor efficacy study in SUM-159 xenografts; conditions: authors' response in review process file
Source text: EMBO Molecular Medicine - Peer Review Process File altering the spliciosome in non transformed cells (i.e. human mammary epithelial cells or MCF10A immortalized but not transform cells)
Although alternative splicing of BCLAF1 is reported to have an additional function in colorectal cancer (Zhou et al, 2014), the reported AS variant was different from the AS variant (lacking exon […]
AS in both cancer cell lines (HCT116) and untransformed cell lines (hTERT) (Funnell et al, 2017). […]
specific to transformed cells.
BJ) had relatively low expression of CLK2 and less growth-suppressive sensitivity to T-025 (Fig […]
rendered cancer cells more sensitive to T-025. […]
short-term treatment with T-025 causes apoptosis only in cancer cells with high expression of CLK2 or with activated MYC, but not in normal tissue. Therefore, in the mouse model, intermittent […]
- Figure 4 D, E, and F: it is not specified the name of all cancer dell lines used in the study. This is […]
relevant the work. If only SKBR3 and AU565 cell lines have a high MYC CVN, and consequently are more sensitive to T-025, why did the authors use MDA-MB 468 cell line to do the experiments of Figure 2 and 3? Please clarify. In addition, confirmation in an alternative breast cancer cell line is […]

[2] = molecular target: HIPK2 (Homo sapiens, UniProt Q9H2X6); test: Immunoblotting of pS46 p53, direct phosphorylation site of HIPK2, in cells; type: cell-based; conditions: up to 1000 nmol/L; immunoblot from Fig 2A samples (MDA-MB-468, 6 h)
Chain of HIPK2 (Q9H2X6 whole entry): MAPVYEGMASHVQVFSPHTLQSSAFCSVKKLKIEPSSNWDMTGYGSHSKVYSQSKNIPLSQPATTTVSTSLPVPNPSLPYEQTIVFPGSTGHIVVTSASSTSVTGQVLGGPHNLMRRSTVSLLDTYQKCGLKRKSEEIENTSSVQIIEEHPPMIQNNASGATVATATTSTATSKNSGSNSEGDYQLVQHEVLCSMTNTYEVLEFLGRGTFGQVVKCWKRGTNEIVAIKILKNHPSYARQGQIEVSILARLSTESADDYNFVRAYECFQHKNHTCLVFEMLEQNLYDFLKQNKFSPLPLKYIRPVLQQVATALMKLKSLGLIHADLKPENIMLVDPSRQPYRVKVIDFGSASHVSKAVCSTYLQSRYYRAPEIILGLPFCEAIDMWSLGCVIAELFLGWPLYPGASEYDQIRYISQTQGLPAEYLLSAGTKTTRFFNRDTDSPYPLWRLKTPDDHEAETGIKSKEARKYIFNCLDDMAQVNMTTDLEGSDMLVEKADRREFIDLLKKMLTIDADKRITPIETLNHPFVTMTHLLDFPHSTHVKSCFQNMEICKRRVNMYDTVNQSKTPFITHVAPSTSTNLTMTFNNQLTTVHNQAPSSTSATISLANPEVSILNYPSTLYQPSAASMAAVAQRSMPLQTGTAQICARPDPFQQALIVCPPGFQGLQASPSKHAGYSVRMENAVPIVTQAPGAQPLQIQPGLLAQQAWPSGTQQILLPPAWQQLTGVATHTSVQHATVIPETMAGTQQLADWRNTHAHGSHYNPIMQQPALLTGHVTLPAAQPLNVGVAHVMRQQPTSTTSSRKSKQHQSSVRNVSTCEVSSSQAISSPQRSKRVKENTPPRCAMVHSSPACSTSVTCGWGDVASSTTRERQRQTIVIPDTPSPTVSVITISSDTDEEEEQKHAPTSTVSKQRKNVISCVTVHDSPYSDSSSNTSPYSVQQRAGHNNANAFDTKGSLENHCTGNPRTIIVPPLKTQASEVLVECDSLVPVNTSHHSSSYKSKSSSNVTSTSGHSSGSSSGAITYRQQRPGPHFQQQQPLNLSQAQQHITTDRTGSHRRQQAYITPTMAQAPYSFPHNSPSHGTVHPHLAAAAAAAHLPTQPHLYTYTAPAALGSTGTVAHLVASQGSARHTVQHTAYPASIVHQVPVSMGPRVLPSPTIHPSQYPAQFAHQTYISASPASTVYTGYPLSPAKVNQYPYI
Source text: EMBO Molecular Medicine - Peer Review Process File
PRS6KB1 was observed by RNAi of CLK2 and T-025.
It had already been reported that ASs induced by […]
that T-025 and depletion of CLKs caused a similar splicing effect.
Furthermore, T3, another CLK […]
and increased MYC-dependent vulnerability (Fig EV4). […]
phosphorylation, at a direct phosphorylation site of HIPK2, up to 1000 nmol/L (see below, from Fig.
In quantifying the bands of pCLK2, the background of this immunoblotting around 50 kDa was relatively high and the band was shifted in the T-025 treated samples (below); thus, we could not […]
BF is undefined and ∆PSI is not clearly defined. If ∆PSI is really "percentage splice-in", none of the effects is significant. The normalization of ∆PSI is unclear. In Figure 2E, the difference between […]
According to the MISO software, the Bayer Factor (BF) represents the weight of the evidence in the data in favor of differential expression versus the weight of evidence not in favor. For example, a © European Molecular Biology Organization 13 […]

[3] = Pharmacokinetics evaluation, unbound plasma concentration after oral administration; type: in vivo; conditions: nude mice, mean, calculated using protein binding
Description: The black dotted line indicates the relative ATP value prior to treatment (Day 0). • C The number of AS events modulated by T‐025 treatment for 6 h in MDA‐MB‐468 cells. The numbers of AS events with a BF > 20 and |ΔPSI| > 0.1 were counted and categorized according to the AS type (SE, skipped exon; RI, retained intron; A5′SS, alternative 5′‐splice‐site; A3′SS, alternative 3′‐splice‐site; MEE, mutually exclusive exon; AFE, alternative first exon; ALE, alternative last exon). • D–F MDA‐MB‐468 xenograft tumors treated with 50 mg/kg of T‐025 were sampled and analyzed by immunohistochemistry […], immunoblotting (E), or RT–PCR (F). Representative images of pCLK2 stained tumors and scale bar (30 μm) are shown. Also shown: The mean unbound plasma T‐025 concentration was calculated using protein binding after oral administration. • G, H Anti‐tumor efficacy of T‐025 in MDA‐MB‐468 xenograft models. T‐025 was administered twice daily on 2 days per week (red arrows). Tumor volume (G) and body weight (H) during the efficacy study are shown as means ± s.e.m. (n = 5). Data information: In (B, D, and F), data are shown as the means ± s.d. of three independent experiments (n = 3). In (G and H), an unpaired Student's t‐test was performed.Source data are available online for this figure. TEXT PRINTED IN THE PICTURE: (D) T-025: Unbound plasma Conc. (nmol/L): 554 (50 mg/kg; 2 h); Unbound plasma Conc. (nmol/L): 97 (50 mg/kg; 4 h); Unbound plasma Conc. (nmol/L): 105 (50 mg/kg; 8 h); Unbound plasma Conc. (nmol/L): 0 (50 mg/kg; 24 h)
Then, we evaluated T‐025 in an animal model.

[4] = test system: other kinases; test: KINOMEScan-based kinase selectivity assay, kinases other than CLK/DYRK1; type: binding
Description: The KINOMEScan‐based kinase selectivity assay was performed at the DiscoverX Corporation (Fremont, CA, USA). The panel of growth inhibition assay and subsequent bioinformatics analysis (Fig EV1) were performed at Eurofins Inc. (St. Charles, MO, USA), using OncoPanel 240 or 60. Details of the procedures of cell proliferation assay, caspase‐3/7 activity assay, immunoblotting, and immunohistochemistry are described in Appendix Supplementary Methods.

With CNc1nc(NCc2ncccn2)c2c(-c3ccc4ncccc4c3)c[nH]c2n1 [T-025, N ^2‐methyl‐N ^4‐[pyrimidin‐2‐ylmethyl]‐5‐[quinolin‐6‐yl]‐7H‐pyrrolo[2,3‐d]pyrimidine‐2,4‐diamine] as the molecule, how does the anti-tumor efficacy [1] read?
The anti-tumor efficacy was “showed significant anti-tumor properties”.

And the “inhibition of HIPK2 in cells (pS46 p53 phosphorylation)” value [2]?
The value was “did not inhibit HIPK2”.

What about the “Unbound plasma Conc.” value ([3]; oral 50 mg/kg, 8 h) of the same molecule?
Its value is 104 nM.

What about the concentration at 2 h ([3]; nude, mouse, plasma, po, 50 mg/kg, 2 h, read-out: Unbound plasma Conc.) of the same molecule?
The concentration at 2 h was 554 nM.

What about the concentration at 4 h ([3]; nude, mouse, plasma, po, 50 mg/kg, 4 h, read-out: Unbound plasma Conc.) of the same molecule?
Its concentration at 4 h is 97 nM.

And the concentration at 8 h ([3]; nude, mouse, plasma, po, 50 mg/kg, 8 h, read-out: Unbound plasma Conc.)?
Its concentration at 8 h is 105 nM.

What about the concentration at 24 h ([3]; nude, mouse, plasma, po, 50 mg/kg, 24 h, read-out: Unbound plasma Conc.) of the same molecule?
The concentration at 24 h was 0 nM.

And the “selectivity for CLK/DYRK1 over other kinases” value [4]?
Its value is greater than 300 fold.

What about the Kd ([4]; no other kinase had Kd < 30, read-out: Kd of other kinases outside of CLK and DYRK1 family) of the same molecule?
Its Kd is no less than 30 nM.
